Columns and labels:
HEK293T cells [1] = experiment: Cell proliferation assay (WST-1), cellular toxicity of adjuvants; assay type: cell-based, human
Experimental: In 6-well plates, triplicates of 2×10^5 cells per well were seeded and treated with defined adjuvant concentrations ranging from 1 μg/ml to 1000 μg/ml. After 24 hours incubation (at 37° C. with 5% C02) the medium was exchanged with fresh medium and cells were incubated for additional 48 hours. Cell proliferation was determined with the WST-1 colorimetric cell proliferation assay (Roche), according to manufacturer's instructions. Shortly, cells were trypsinized following 100 μl cell incubation with 10 μl WST-1 substrate (at 37° C. with 5% C02) for 2 hours. The assay was performed in 96-well microtiter plates and absorbance was determined at 490 nm using a TECAN-Infinite microplate reader (TECAN).
From potential adjuvant substances for lentiviral gene delivery we selected five representatives from the class of polycation-like and seven from the class of poloxamer-like chemical substances (Tab. 1). HEK293T cells were co-incubated with defined substance concentration for 24 hours, than medium was changed and cells were incubated for additional 48 hours prior measurements of cell proliferation. To test specific HEK293T growth inhibition by different substances we measured incorporation of WST1 substrate and correlated to control cell population without any substance co-incubation (FIG. 1). […]

HEK293T cells [2] = experiment: Adjuvant-assisted lentiviral (GFP) gene transfer into HEK293T cells, flow cytometry; assay type: cell-based, human
Experimental: HEK293T cells (2×10^5 cells per well) were covered with 1 ml medium containing lentivirus (GP) with or without adjuvants. […] In given case, plates were centrifuged at 1,000 g for 60 min. After 24 hours incubation (at 37° C. with 5% CO2) the supernatant was exchanged with fresh medium and incubated for additional 48 hours. Combined microscopic analysis and documentation was done after 48 hours post infection (HBO 50/AC and AxioCam MRC, Carl Zeiss AG). […] Plates were centrifuged at 800 g for 90 min.
After lentiviral transduction, cells were washed in PBS and resuspended in PBS with 1 μg/mi propidium iodide (Invitrogen). After 10 min incubation on ice, 30,000 events were analyzed for forward/sideward scatter characteristics, green fluorescence light emission at 530 nm and red fluorescence light emission at 610 nm in FACSDiva (BD Biosciences).
HEK293T cells were covered (for 24 hours) with a mixture of LV with specified adjuvant in a maximum tolerable concentration (1000 μg/ml). LV carrying a CopGFP-coding transgene were applied in decreasing MOI from 2.5 to 0.0025. After medium change, cells were cultivated for another 48 hours and measured for green fluorescent light emission by flow cytometry.
HEK293T cells were covered (for 24 hours) with a mixture of LV as used in example 3 with specified adjuvant up to a maximum applied concentration of 5000 μg/ml Synperonic F108. […]

CC(C)CCC[C@@H](C)[C@H]1CC[C@H]2[C@@H]3CC=C4C[C@@H](OC(=O)NCCN(C)C)CC[C@]4(C)[C@H]3CC[C@]12C.Cl [Cholesterylcarbamate, Cholesteryl-3β-N-(dimethyl-amino-ethyl)-carbamate-hydrochloride]
cell proliferation / toxicity (HEK293T cells [1]; increasing concentrations above 10 μg/ml, FIG. 1a): massive reduction in cell proliferation

CCCCCCCC/C=C\CCCCCCCC(=O)OC[C@H](COP(=O)(O)OCCN)OC(=O)CCCCCCC/C=C\CCCCCCCC [PEA, L-α-Phosphatidyl-ethanolamine-dioleoyl]
cell proliferation / cellular viability (HEK293T cells [1]; 1000 μg/ml, FIG. 1): remained non-toxic
transduction efficiency (in words) (HEK293T cells [2]; MOI 2.5, polybrene 10 μg/ml, others 1000 μg/ml, FIG. 2): low transduction rates
transduction/infection compared with polybrene-assisted LV infection (in words) (HEK293T cells [2]; polybrene 10 μg/ml, others 1000 μg/ml and above): failed to further increase this transduction level
